Source: patent US9018208B2, “Heterocycles as potassium channel modulators” (Icagen Inc., priority 2007, dated 2015)
Read-outs that look alike come from different tables or passages of the source.

Test system: SH-SY5Y M-currents (KCNQ2, KCNQ3 and KCNQ5)
Test: SH-SY5Y native cell line FLIPR assay (voltage-sensitive dye DiBAC)
Format: cell-based, mouse neuroblastoma, rat glioma hybrid cell line
Conditions: SH-SY5Y native cell line, read-out: SH-SY5Y EC50
Method in brief: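 Response is peak DiBAC fluorescence change, normalised to the maximum from a positive control agent, sampled every 30 s over 25 min. Before compound addition, SH-SY5Y cells differentiated with PGE1 plus isomethylbutylxanthine were dye-loaded for 1 h in EBSS with […] DiBAC.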

EC50 (FLIPR assay, Table 1)	EC50 (FLIPR assay, Table 2)	SMILES	further results
–	0.5 to 3 µM	CC(CC(=O)Nc1nc2ccccn2c1-c1cccc(C(F)(F)F)c1)C(F)(F)F (centres unmarked) [Compound 337, 4,4,4-trifluoro-3-methyl-N-(3-(3-(trifluoromethyl)phenyl)imidazo[1,2-a]pyridin-2-yl)butanamide]	–
–	< 0.5 µM	O=C(Cc1ccccc1)Nc1nc2ccc(F)cn2c1-c1ccc(OC(F)(F)F)c(F)c1 [Compound 295, N-(6-fluoro-3-(3-fluoro-4-(trifluoromethoxy)phenyl)imidazo[1,2-a]pyridin-2-yl)-2-phenylacetamide]	–
–	< 0.5 µM	O=C(CC1CCCC1)Nc1nc2ccccn2c1-c1ccc(OC(F)(F)F)cc1 [Compound 226, 2-cyclopentyl-N-(3-(4-(trifluoromethoxy)phenyl)imidazo[1,2-a]pyridin-2-yl)acetamide]	–
–	0.5 to 3 µM	O=C(CCC(F)(F)F)Nc1nc2ccc(F)cn2c1-c1cccc(Cl)c1 [Compound 285, N-(3-(3-chlorophenyl)-6-fluoroimidazo[1,2-a]pyridin-2-yl)-4,4,4-trifluorobutanamide]	–
–	0.5 to 3 µM	O=C(CC(F)(F)F)Nc1nc2ccc(F)cn2c1-c1cccc(C(F)(F)F)c1 [Compound 267, 3,3,3-trifluoro-N-(6-fluoro-3-(3-(trifluoromethyl)phenyl)imidazo[1,2-a]pyridin-2-yl)propanamide]	–
–	< 0.5 µM	O=C(Cc1cccc(Cl)c1)Nc1nc2ccc(F)cn2c1-c1ccc(OC(F)(F)F)c(F)c1 [Compound 298, 2-(3-chlorophenyl)-N-(6-fluoro-3-(3-fluoro-4-(trifluoromethoxy)phenyl)imidazo[1,2-a]pyridin-2-yl)acetamide]	–
–	0.5 to 3 µM	O=C(CCC(F)(F)F)Nc1nc2ccc(F)cn2c1-c1cccc(OC(F)(F)F)c1 [Compound 275, 4,4,4-trifluoro-N-(6-fluoro-3-(3-(trifluoromethoxy)phenyl)imidazo[1,2-a]pyridin-2-yl)butanamide]	–

More lines, now with the values behind:

SMILES	EC50 (FLIPR assay, Table 1)	EC50 (FLIPR assay, Table 2)	further results
CC(CC(=O)Nc1nc2ccc(F)cn2c1Cc1ccc(C(F)(F)F)cc1)C(F)(F)F (centres unmarked) [Compound 29, 4,4,4-trifluoro-N-(6-fluoro-3-(4-(trifluoromethyl)benzyl)imidazo[1,2-a]pyridin-2-yl)-3-methylbutanamide]	< 0.5 µM	–	–
CC(C)(C)CC(=O)Nc1nc2ccc(F)cn2c1CC(C)(C)C [Compound 15, N-(6-fluoro-3-neopentylimidazo[1,2-a]pyridin-2-yl)-3,3-dimethylbutanamide]	0.5 to 3 µM	–	–
Cc1ccc2nc(NC(=O)CC(C)(C)C)c(-c3cc(C(F)(F)F)ccn3)n2n1 [Compound 394, 3,3-dimethyl-N-(6-methyl-3-(4-(trifluoromethyl)pyridin-2-yl)imidazo[1,2-b]pyridazin-2-yl)butanamide]	–	–	EC50 (FLIPR assay (Table 3)): 3 to 10 µM
CC(CC(=O)Nc1nc2ccc(F)cn2c1-c1ccc(F)cc1)CC(C)(C)C (centres unmarked) [Compound 139, N-(6-fluoro-3-(4-fluorophenyl)imidazo[1,2-a]pyridin-2-yl)-3,5,5-trimethylhexanamide]	–	< 0.5 µM	–
CC1(CC(=O)Nc2nc3ccc(F)cn3c2-c2ccc(OC(F)(F)F)cc2)CCCC1 [Compound 193, N-(6-fluoro-3-(4-(trifluoromethoxy)phenyl)imidazo[1,2-a]pyridin-2-yl)-2-(1-methylcyclopentyl)acetamide]	–	< 0.5 µM	–
Cc1ccc2nc(NC(=O)C3CCC(F)(F)CC3)c(-c3cc(C(F)(F)F)ccn3)n2n1 [Compound 397, 4,4-difluoro-N-(6-methyl-3-(4-(trifluoromethyl)pyridin-2-yl)imidazo[1,2-b]pyridazin-2-yl)cyclohexanecarboxamide]	–	–	EC50 (FLIPR assay (Table 3)): 3 to 10 µM
CC(C)(C)Cc1c(NC(=O)CC2(C)CCCC2)nc2ccc(C(F)(F)F)cn12 [Compound 34, 2-(1-methylcyclopentyl)-N-(3-neopentyl-6-(trifluoromethyl)imidazo[1,2-a]pyridin-2-yl)acetamide]	< 0.5 µM	–	–
O=C(Cc1ccccc1)Nc1nc2ccc(C(F)(F)F)cn2c1C1CCCC1 [Compound 49, N-(3-cyclopentyl-6-(trifluoromethyl)imidazo[1,2-a]pyridin-2-yl)-2-phenyl acetamide]	< 0.5 µM	–	–
Cc1ccc2nc(NC(=O)CC(C)C(F)(F)F)c(-c3cc(C(F)(F)F)ccn3)n2n1 (centres unmarked) [Compound 396, 4,4,4-trifluoro-3-methyl-N-(6-methyl-3-(4-(trifluoromethyl)pyridin-2-yl)imidazo[1,2-b]pyridazin-2-yl)butanamide]	–	–	EC50 (FLIPR assay (Table 3)): 3 to 10 µM
Cc1ccc2nc(NC(=O)C3CCC(F)(F)CC3)c(C3CC3)n2n1 [Compound 78, N-(3-cyclopropyl-6-methylimidazo[1,2-b]pyridazin-2-yl)-4,4-difluorocyclohexanecarboxamide]	0.5 to 3 µM	–	–
O=C(Cc1ccc(F)cc1)Nc1nc2ccc(C(F)(F)F)cn2c1C1CCCCC1 [Compound 41, N-(3-cyclohexyl-6-(trifluoromethyl)imidazo[1,2-a]pyridin-2-yl)-2-(4-fluorophenyl)acetamide]	< 0.5 µM	–	–
O=C(Cc1ccc(F)cc1)Nc1nc2ccc(C(F)(F)F)cn2c1-c1nccs1 [Compound 84, 2-(4-fluorophenyl)-N-(3-(thiazol-2-yl)-6-(trifluoromethyl)imidazo[1,2-a]pyridin-2-yl)acetamide]	< 0.5 µM	–	–
CC(C)(C)CC(=O)Nc1nc2ccc(F)cn2c1-c1ccc(F)cc1F [Compound 116, N-(3-(2,4-difluorophenyl)-6-fluoroimidazo[1,2-a]pyridin-2-yl)-3,3-dimethylbutanamide]	–	0.5 to 3 µM	–
O=C(CCC1CC1)Nc1nc2ccc(F)cn2c1-c1ccc(OC(F)(F)F)cc1 [Compound 172, 3-cyclopropyl-N-(6-fluoro-3-(4-(trifluoromethoxy)phenyl)imidazo[1,2-a]pyridin-2-yl)propanamide]	–	0.5 to 3 µM	–
CC(C)C(C)C(=O)Nc1nc2ccc(F)cn2c1Cc1ccc(C(F)(F)F)cc1 (centres unmarked) [Compound 30, N-(6-fluoro-3-(4-(trifluoromethyl)benzyl)imidazo[1,2-a]pyridin-2-yl)-2,3-dimethylbutanamide]	0.5 to 3 µM	–	–
CC(C)(CO)CC(=O)Nc1nc2ccc(F)cn2c1-c1ccc(C(F)(F)F)cc1 [Compound 190, N-(6-fluoro-3-(4-(trifluoromethyl)phenyl)imidazo[1,2-a]pyridin-2-yl)-4-hydroxy-3,3-dimethylbutanamide]	–	3 to 10 µM	–

SMILES	EC50 (FLIPR assay, Table 1)	EC50 (FLIPR assay, Table 2)	further results
O=C(CC1CCCC1)Nc1nc2ccc(F)cn2c1-c1ccc(F)cc1F [Compound 118, 2-cyclopentyl-N-(3-(2,4-difluorophenyl)-6-fluoroimidazo[1,2-a]pyridin-2-yl)acetamide]	–	0.5 to 3 µM	–
CC(CC(=O)Nc1nc2ccc(F)cn2c1-c1ccc(OC(F)(F)F)cc1)C(F)(F)F (centres unmarked) [Compound 195, 4,4,4-trifluoro-N-(6-fluoro-3-(4-(trifluoromethoxy)phenyl)imidazo[1,2-a]pyridin-2-yl)-3-methylbutanamide]	–	< 0.5 µM	–
CC(C)(C)Cc1c(NC(=O)Cc2cccc(Cl)c2)nc2ccc(C(F)(F)F)cn12 [Compound 35, 2-(3-chlorophenyl)-N-(3-neopentyl-6-(trifluoromethyl)imidazo[1,2-a]pyridin-2-yl)acetamide]	< 0.5 µM	–	–
Cc1ccc2nc(NC(=O)CC(C)(C)C)c(CC(C)(C)C)n2n1 [Compound 67, 3,3-dimethyl-N-(6-methyl-3-neopentylimidazo[1,2-b]pyridazin-2-yl)butanamide]	< 0.5 µM	–	–
O=C(Cc1ccccc1)Nc1nc2ccc(C(F)(F)F)cn2c1-c1ccc(F)cc1 [Compound 119, N-(3-(4-fluorophenyl)-6-(trifluoromethyl)imidazo[1,2-a]pyridin-2-yl)-2-phenylacetamide]	–	< 0.5 µM	–
O=C(CCC(F)(F)F)Nc1nc2ccc(F)cn2c1-c1ccccc1 [Compound 97, 4,4,4-trifluoro-N-(6-fluoro-3-phenylimidazo[1,2-a]pyridin-2-yl)butanamide]	–	0.5 to 3 µM	–
CC(C)(C)Cc1c(NC(=O)Cc2ccc(F)cc2)nc2ccc(F)cn12 [Compound 17, N-(6-fluoro-3-neopentylimidazo[1,2-a]pyridin-2-yl)-2-(4-fluorophenyl) acetamide]	< 0.5 µM	–	–
O=C(Nc1nc2ccc(C(F)(F)F)cn2c1C1CC1)C1CCC(F)(F)CC1 [Compound 75, N-(3-cyclopropyl-6-(trifluoromethyl)imidazo[1,2-a]pyridin-2-yl)-4,4-difluorocyclohexanecarboxamide]	< 0.5 µM	–	–
CC(C)(C)CC(=O)Nc1nc2ccc(Cl)cn2c1-c1ccc(F)cc1 [Compound 130, N-(6-chloro-3-(4-fluorophenyl)imidazo[1,2-a]pyridin-2-yl)-3,3-dimethylbutanamide]	–	< 0.5 µM	–
O=C(Nc1nc2ccc(F)cn2c1-c1nc2ccccc2s1)C1CCCC1 [Compound 378, N-(3-(benzo[d]thiazol-2-yl)-6-fluoroimidazo[1,2-a]pyridin-2-yl)cyclopentanecarboxamide]	–	–	EC50 (FLIPR assay (Table 3)): 3 to 10 µM
CC(C)(C)CC(=O)Nc1nc2ccc(F)cn2c1-c1ccc(F)c(C(F)F)c1 [Compound 196, N-(3-(3-(difluoromethyl)-4-fluorophenyl)-6-fluoroimidazo[1,2-a]pyridin-2-yl)-3,3-dimethylbutanamide]	–	< 0.5 µM	–
CC(C)(C)CC(=O)Nc1nc2ccccn2c1-c1cc(C(F)(F)F)ccn1 [Compound 404, 3,3-dimethyl-N-(3-(4-(trifluoromethyl)pyridin-2-yl)imidazo[1,2-a]pyridin-2-yl)butanamide]	–	–	EC50 (FLIPR assay (Table 3)): 0.5 to 3 µM
CC(C)(C)CC(=O)Nc1nc2ccc(F)cn2c1-c1ccc(F)cc1 [Compound 103, N-(6-fluoro-3-(4-fluorophenyl)imidazo[1,2-a]pyridin-2-yl)-3,3-dimethylbutanamide]	–	< 0.5 µM	–
CCC(C)CC(=O)Nc1nc2ccc(F)cn2c1-c1ccc(F)cc1 (centres unmarked) [Compound 147, N-(6-fluoro-3-(4-fluorophenyl)imidazo[1,2-a]pyridin-2-yl)-3-methylpentanamide]	–	0.5 to 3 µM	–
C#CCCCC(=O)Nc1nc2ccc(F)cn2c1-c1ccc(F)cc1 [Compound 151, N-(6-fluoro-3-(4-fluorophenyl)imidazo[1,2-a]pyridin-2-yl)hex-5-ynamide]	–	0.5 to 3 µM	–
